Among the data in patent US6960342B2, “Method for inhibiting pathogenic fungi in plants using Bacillus amyloliquefaciens” (National Taiwan University, priority 2002, dated 2005) are Disease severity values, retold here.

Common to all, as to format: in vivo
Assay [1] concerns Botrytis elliptica. Kind of assay: Field trials, control of lily gray mold; disease severity. The conditions noted are these: antagonist 1 × 10^5 cfu/ml or 100 ppm flusilazole, three applications, recorded 14 days after the last application, scale 0 to 4. How it is done:
Lily fields in Taipei and I-Lan counties were selected for this experiment. Suspensions of the B190 and Botrytis elliptica were adjusted to about 1×10^5 cfu/ml and 1×10^3 conidia/ml, respectively, before application. 100 ppm of flusilazole (37% Emulsion, Du Pont, USA) was used for comparison. After spraying B190 or flusilazole by sprayer (MS sprayer, Taiwan), 5 ml of the spore suspension of Botrytis elliptica was sprayed onto each 100-day-old lily plant. A total of three sprays at 10-day intervals were applied. Each treatment consisted of 100 plants with 4 replicates. Every replicate was planted on a plot, which was 30 m long and 2 m wide. All the treatments were arranged based on randomized complete block design. Two weeks after the last spray, disease severity was assessed and analyzed as above-mentioned.

In assay [2] the test system is Botrytis elliptica. In words: B190 formulations on Botrytis elliptica infected lilies in field. The conditions noted are these: B190 1 × 10^5 cfu/ml, 3 applications (10 days/interval), fourteen days after the last application, scale 0 to 4. Here is the method:
Bacillus amyloliquefaciens B190 was cultured in a flask containing 1% rice chaff and 99% de-ion water. Then the flask was positioned on a rotary shaker located in an incubator. B190 was incubated at an ambient temperature of 25±5° C. for 3 days. Thereafter, the cultured B190 was collected by means of centrifugation (3000 rpm/10 minutes; Tomy CM-60 RN, Seiko, Japan). The pellet mixed with 1% (w/v) kaolin was used as a wettable powder (WP). The pellet mixed with 0.025% (v/v) heavy mineral oil and 0.1% Tween 80 was served as an emulsion (E).
Different chemicals or adjuvants were added to the wettable powder, emulsion or B190-containing filtrate as described above for investigating their inhibitory ability on lilies in the field. These chemicals include 0.025% Ca(OH)2, 0.05% Na2CO3, 0.025% NH4NO3 and 0.025% K2HPO4. The adjuvants comprise 0.1% Tween 80 and 0.05% mineral oil.
Unformulated B. amyloliquefaciens B190 and 100 p.p.m. flusilazole were used as controls. In addition, uninoculated and inoculated lily plants with B. elliptica were also included as controls. Applications of these treatments were carried out when flowering tissues reached 100 to 120 mm in diameter. Treatments were applied three times with intervals of 10 days. […] After inoculating B. elliptica for ten days, disease severity was scored as described above.

Assay [3] has as its system Botrytis elliptica. In words: B190 formulations on Botrytis elliptica infected lilies in greenhouse. As to conditions: B190 […] cfu/ml, 3 applications (10 days/interval), flusilazole 100 p.p.m., recorded ten days after the last application, scale 0 to 4. How it is done:
Bacillus amyloliquefaciens B190 was cultured in a flask containing 1% rice chaff and 99% de-ion water. The flask was then positioned on a rotary shaker located in an incubator. B190 was incubated at 25±5° C. for 3 days. Thereafter, the B190-containing solution was filtered for application in the following experiments.
Different chemicals or adjuvants were added to the B190-containing filtrate for investigating their inhibitive capability on Botrytis elliptica infected lilies in greenhouse. The chemicals include 0.025% Ca(OH)2, 0.05% Na2CO3, 0.025% NH4NO3 and 0.025% K2HPO4. The adjuvants comprise 0.1% Tween 80 and 0.05% mineral oil.
Unformulated B. amyloliquefaciens B190 and 100 p.p.m. flusilazole were used as controls. In addition, uninoculated and inoculated lily plants with B. elliptica were also included as controls. Applications of these treatments were carried out when flowering tissues reached 30 to 50 mm in diameter. Treatments were applied three times with intervals of 10 days. Thereafter, 5 ml of B. elliptica spore suspension (1×10^3 conidia/ml) was inoculated on lily plants except the uninoculated control. Each different treatment had four replicates, and 5 lily plants were applied in every replicate. All treatments were arranged in a randomized complete block design. After inoculating B. elliptica for ten days, disease severity was scored as described above.

As for `C[Si](Cn1cncn1)(c1ccc(F)cc1)c1ccc(F)cc1` [Flusilazole, flusilazole], the Disease severity in assay [1] (I-Lan) is listed as 0.80 b; in assay [1] (Taipei), 0.31 bc; in assay [2] (I: two trials in I-Lan county), 0.23 cd; in assay [2] (II: two trials in NTU experimental farm), 0.39 bc; in assay [3], 0.32 ef.
